A word on the IC50: it is the concentration that inhibits the measured activity by half. In general, melting point refers to the temperature of the solid-liquid transition. One may read the inhibition as how much of the control response was suppressed.

For data set [1], the target named is T1, COX-1 (Ovis aries, UniProt P05979).
T1 sequence (P05979 25-600): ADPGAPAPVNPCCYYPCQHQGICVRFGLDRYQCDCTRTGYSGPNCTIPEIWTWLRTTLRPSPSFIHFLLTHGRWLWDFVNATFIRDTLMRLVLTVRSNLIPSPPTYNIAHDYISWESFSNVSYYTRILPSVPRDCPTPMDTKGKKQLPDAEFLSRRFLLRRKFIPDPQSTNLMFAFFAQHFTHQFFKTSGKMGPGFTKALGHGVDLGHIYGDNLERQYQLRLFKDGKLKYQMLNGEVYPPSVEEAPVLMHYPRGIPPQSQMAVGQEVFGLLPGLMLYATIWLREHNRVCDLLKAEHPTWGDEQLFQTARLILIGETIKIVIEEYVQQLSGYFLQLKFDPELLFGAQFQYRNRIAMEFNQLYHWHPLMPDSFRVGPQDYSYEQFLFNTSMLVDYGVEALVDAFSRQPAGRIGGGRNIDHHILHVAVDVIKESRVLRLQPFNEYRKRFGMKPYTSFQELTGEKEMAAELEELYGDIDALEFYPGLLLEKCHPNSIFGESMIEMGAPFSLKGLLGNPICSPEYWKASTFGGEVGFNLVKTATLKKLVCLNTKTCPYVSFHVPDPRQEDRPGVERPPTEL
Kind of data set: In vitro COX-1 enzyme inhibition assay (colorimetric kit).
Description: (§2) IC50 (represented in μM) (The half-maximal inhibitor concentration) values were determined[56–59], and the SI values were calculated[51]^,[52]^,[55] as IC50 (COX-1)/IC50 (COX-2).

Data set [2] deals with MCF-7. Kind of data set: MTT antitumor assay, MCF-7. Particulars: Homo sapiens, MCF7, read-out: IC50 (μM) MCF-7, human breast adenocarcinoma cell line, MTT, mean ± SD, n = 3.
Description: (§3) The evaluation of the antitumour activity was performed using tetrazolium salt MTT (3–(4,5-dimethyl-2-thiazolyl)-2,5-diphenyl-2H-tetrazolium bromide) assay as reported[47–50].
Data set [3] relates to HCT-116. Kind of data set: MTT antitumor assay, HCT-116. Conditions: Homo sapiens, HCT-116, read-out: IC50 (μM) HCT-116, human colon cancer cell line, MTT, mean ± SD, n = 3.
Description: as §3
The target of data set [4] is T2, COX-2 (Ovis aries, UniProt P79208).
T2 sequence (P79208 17-603): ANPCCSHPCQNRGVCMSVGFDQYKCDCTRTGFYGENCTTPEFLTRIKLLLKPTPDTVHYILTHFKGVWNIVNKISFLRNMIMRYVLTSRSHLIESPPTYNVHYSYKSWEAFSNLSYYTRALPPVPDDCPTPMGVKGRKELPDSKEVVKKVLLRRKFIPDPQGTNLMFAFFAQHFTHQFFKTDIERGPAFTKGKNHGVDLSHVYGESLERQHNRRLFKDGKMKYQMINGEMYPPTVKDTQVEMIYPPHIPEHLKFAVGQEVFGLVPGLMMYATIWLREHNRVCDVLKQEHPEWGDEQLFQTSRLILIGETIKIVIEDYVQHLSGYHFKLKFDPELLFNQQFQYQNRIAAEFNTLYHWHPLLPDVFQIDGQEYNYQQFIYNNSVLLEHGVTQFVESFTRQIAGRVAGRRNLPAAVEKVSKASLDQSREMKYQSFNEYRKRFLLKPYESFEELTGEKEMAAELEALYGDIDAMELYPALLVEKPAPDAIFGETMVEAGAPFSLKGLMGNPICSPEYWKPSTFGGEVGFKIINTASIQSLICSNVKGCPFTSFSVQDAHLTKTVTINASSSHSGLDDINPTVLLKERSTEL
Kind of data set: In vitro COX-2 enzyme inhibition assay (colorimetric kit). Particulars: for SI, selectivity index (COX-1 IC50/COX-2 IC50): COX-2 selectivity over COX-1.
Description: as §2

Data set [5] concerns HepG2. Nature of the data set: MTT antitumor assay, HepG2. Conditions: Homo sapiens, HepG2, read-out: IC50 (μM) HepG2. For orientation: Formazan colour is commonly taken as a measure of viable cells.
Description: as §3
Data set [6] has as its target T3, HER2 (Homo sapiens, UniProt P04626).
T3 construct: purchased BPS Bioscience
Kind of data set: Kinase inhibition assay (Kinase-Glo Plus), HER2. The class given is biochemical. Particulars: read-out: % inhibition of 10 μM HER2; 10 μM compound. As to the method: (§1) Luminescence signal was measured using a BioTek Synergy 2 microplate reader.
Background: In Kinase-Glo more light means more ATP remaining.

Data set [7] concerns Caco-2. Nature of the data set: MTT antitumor assay, Caco-2. Particulars: Homo sapiens, Caco-2, read-out: IC50 (μM) Caco-2.
Description: as §3
Data set [8] addresses T4, HER4 (Homo sapiens, UniProt Q15303).
T4 construct: purchased BPS Bioscience
Nature of the data set: Kinase inhibition assay (Kinase-Glo Plus), HER4. Particulars: read-out: % inhibition of 10 μM HER4; 10 μM compound. It counts as biochemical. The method, then: as §1

The target in data set [9] is T5, cSrc (Homo sapiens, UniProt P12931).
T5 construct: purchased BPS Bioscience
T5 sequence (P12931 whole entry): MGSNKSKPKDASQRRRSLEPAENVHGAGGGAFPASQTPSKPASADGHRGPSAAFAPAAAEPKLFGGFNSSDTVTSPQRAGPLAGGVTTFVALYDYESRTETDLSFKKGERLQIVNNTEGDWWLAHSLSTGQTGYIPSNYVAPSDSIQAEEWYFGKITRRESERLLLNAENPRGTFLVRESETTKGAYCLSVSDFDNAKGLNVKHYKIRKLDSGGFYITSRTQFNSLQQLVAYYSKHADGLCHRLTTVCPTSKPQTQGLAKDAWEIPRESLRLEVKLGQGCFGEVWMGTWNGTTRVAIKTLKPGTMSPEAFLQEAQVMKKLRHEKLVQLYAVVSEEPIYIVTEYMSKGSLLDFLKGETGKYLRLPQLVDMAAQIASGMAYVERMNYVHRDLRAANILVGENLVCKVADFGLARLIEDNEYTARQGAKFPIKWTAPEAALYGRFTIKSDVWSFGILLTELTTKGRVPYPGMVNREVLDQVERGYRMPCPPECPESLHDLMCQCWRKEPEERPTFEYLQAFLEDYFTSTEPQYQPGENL
Kind of data set: Kinase inhibition assay (Kinase-Glo Plus), cSrc. It counts as biochemical. Particulars: read-out: % inhibition; 10 μM compound. As to the method:
as §1

Data set [10] concerns the target T6, EGFR (Homo sapiens, UniProt P00533).
T6 construct: purchased BPS Bioscience
Nature of the data set: Kinase inhibition assay (Kinase-Glo Plus), EGFR. The class given is biochemical. Conditions: read-out: % inhibition of 10 μM EGFR; 10 μM compound. As to the method:
as §1

T3 sequence (P04626 23-1255): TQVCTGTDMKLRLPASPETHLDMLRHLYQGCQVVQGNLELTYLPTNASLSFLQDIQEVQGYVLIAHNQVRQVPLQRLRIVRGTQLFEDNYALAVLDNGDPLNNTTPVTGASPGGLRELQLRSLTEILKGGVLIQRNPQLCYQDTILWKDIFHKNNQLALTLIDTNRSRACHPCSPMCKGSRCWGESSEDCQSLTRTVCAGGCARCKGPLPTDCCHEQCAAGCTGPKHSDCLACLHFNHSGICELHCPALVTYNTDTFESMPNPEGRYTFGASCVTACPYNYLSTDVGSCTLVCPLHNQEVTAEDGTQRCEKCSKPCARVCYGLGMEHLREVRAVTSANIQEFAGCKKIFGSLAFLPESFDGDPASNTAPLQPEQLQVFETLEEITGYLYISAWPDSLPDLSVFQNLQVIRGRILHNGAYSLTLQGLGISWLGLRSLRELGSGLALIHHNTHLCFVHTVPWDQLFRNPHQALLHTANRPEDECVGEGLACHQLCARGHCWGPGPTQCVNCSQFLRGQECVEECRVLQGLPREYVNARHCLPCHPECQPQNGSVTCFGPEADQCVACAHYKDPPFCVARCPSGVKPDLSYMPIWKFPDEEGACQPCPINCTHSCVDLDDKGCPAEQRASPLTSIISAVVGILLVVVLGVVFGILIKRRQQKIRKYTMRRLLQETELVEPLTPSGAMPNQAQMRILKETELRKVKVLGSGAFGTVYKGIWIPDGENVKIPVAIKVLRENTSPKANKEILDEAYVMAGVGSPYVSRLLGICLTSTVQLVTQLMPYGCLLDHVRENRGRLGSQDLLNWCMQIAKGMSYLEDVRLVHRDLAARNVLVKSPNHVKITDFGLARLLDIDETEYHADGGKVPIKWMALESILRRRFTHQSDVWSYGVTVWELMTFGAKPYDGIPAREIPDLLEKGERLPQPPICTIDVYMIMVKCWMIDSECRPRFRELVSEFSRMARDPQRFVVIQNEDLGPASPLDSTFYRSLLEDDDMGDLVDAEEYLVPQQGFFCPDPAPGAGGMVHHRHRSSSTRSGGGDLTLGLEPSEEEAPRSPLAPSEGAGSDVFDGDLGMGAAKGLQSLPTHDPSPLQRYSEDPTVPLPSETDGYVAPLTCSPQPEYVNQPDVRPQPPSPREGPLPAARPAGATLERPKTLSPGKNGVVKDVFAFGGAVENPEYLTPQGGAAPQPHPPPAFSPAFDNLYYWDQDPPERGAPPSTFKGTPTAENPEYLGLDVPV
T4 sequence (Q15303 26-1308): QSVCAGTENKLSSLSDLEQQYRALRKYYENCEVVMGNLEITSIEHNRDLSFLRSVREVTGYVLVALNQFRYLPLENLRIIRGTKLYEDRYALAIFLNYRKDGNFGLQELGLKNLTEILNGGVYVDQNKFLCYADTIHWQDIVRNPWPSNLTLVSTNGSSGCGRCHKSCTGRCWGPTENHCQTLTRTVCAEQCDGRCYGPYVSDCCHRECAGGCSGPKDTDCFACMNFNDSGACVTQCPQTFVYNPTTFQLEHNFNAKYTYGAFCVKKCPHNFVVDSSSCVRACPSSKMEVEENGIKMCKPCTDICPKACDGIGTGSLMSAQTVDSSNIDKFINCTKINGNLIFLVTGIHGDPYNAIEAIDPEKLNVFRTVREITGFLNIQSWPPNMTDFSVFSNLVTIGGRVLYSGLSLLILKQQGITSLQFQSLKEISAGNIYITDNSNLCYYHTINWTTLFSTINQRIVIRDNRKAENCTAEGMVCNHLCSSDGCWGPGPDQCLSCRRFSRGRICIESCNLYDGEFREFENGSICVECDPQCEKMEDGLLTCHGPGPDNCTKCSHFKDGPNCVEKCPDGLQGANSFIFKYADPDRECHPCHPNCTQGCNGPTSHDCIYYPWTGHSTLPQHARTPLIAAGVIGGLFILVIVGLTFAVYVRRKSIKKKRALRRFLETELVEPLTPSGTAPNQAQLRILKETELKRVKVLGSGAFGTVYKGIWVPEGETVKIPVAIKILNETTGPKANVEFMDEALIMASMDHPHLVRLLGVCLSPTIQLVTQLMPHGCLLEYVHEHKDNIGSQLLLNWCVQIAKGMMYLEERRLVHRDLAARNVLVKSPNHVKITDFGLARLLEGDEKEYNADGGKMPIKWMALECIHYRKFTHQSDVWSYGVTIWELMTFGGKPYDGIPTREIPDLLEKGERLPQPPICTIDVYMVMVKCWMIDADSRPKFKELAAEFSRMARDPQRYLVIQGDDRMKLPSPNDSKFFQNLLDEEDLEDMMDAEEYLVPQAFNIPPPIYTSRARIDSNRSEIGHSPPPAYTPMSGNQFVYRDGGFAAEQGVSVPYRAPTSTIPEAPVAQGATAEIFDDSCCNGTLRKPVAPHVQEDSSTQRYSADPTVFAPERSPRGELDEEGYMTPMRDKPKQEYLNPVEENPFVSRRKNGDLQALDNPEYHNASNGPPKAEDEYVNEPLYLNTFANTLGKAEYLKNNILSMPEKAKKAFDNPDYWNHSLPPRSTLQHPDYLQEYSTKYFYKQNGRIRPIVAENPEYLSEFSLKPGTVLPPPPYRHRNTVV
T6 sequence (P00533 25-1210): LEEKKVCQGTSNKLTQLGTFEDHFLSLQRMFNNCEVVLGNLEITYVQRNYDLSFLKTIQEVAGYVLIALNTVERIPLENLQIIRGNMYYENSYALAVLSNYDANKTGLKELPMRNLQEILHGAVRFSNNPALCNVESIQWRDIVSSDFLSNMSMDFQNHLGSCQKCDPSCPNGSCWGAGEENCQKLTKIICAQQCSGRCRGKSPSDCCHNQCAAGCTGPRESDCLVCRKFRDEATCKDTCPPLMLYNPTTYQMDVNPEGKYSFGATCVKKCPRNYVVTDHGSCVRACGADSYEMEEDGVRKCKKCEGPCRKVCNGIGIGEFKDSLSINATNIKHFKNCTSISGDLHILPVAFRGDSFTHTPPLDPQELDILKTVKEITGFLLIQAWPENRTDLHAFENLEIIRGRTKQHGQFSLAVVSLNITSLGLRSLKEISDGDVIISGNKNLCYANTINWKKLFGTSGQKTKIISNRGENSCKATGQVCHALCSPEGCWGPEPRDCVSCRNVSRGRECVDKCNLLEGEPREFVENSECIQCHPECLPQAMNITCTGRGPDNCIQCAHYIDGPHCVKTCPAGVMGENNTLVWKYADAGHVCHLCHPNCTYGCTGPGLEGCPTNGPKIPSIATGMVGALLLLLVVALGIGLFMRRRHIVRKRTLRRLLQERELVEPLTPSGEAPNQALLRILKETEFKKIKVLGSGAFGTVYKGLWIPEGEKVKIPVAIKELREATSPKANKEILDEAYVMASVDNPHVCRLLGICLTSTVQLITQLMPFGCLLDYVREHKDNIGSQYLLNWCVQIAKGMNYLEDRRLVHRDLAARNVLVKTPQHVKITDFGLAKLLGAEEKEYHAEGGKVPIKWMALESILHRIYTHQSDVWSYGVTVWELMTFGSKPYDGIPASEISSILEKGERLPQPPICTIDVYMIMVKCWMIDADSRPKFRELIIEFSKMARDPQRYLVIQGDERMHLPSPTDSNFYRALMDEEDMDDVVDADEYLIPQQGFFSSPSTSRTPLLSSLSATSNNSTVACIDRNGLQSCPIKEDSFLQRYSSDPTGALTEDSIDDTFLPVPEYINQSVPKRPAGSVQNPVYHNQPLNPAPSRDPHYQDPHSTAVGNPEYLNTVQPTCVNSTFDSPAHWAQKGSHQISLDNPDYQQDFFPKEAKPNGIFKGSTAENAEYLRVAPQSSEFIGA

For `CC(C(=O)SC1CCCCC1)c1ccc(-c2ccccc2)c(F)c1` (stereo not drawn) [3b, S-cyclohexyl-2–(2-fluoro-[1,1′-biphenyl]-4-yl)propanethioate], the melting point fell in the range of 90 to 92 °C. Also, in [1], the IC50 was above 50 µM. In addition, the IC50 in [2] amounted to 13.7 ± 1.19 µM. Besides, in data set [3], the IC50 was 23.8 ± 1.8 µM. Further, in [4], half-maximal inhibition (IC50) required 0.69 ± 0.057 µM and the “SI, selectivity index (COX-1 IC50/COX-2 IC50)” value is given as above 72.5. Moreover, the IC50 in data set [5] was determined as 10.5 ± 0.98 µM. For the same molecule, the inhibition at 10 µM in [6] was found to be 0%. In addition, the IC50 in data set [7] was 26.8 ± 2.17 µM. Further, in data set [8], the inhibition at 10 µM worked out at 3%. For the same molecule, the inhibition at 10 µM in data set [9] was determined as 3%. Moreover, in [10], the inhibition at 10 µM is 0%.
Molecule `COc1ccc2c(c1)c(CC(=O)SC1CCCCC1)c(C)n2C(=O)c1ccc(Cl)cc1` [7b, S-cyclohexyl-2–(1-(4-chlorobenzoyl)-5-methoxy-2-methyl-1H-indol-3-yl)ethanethioate] came in with a melting point of 97 to 98 °C. Moreover, the IC50 in [1] is above 50 µM. Moreover, the IC50 in [2] came out at 17.1 ± 1.4 µM. In addition, the IC50 in data set [3] is 34 ± 2.25 µM. Further, in data set [4], the midpoint of inhibition, the IC50, lay at 0.49 ± 0.044 µM and the “SI, selectivity index (COX-1 IC50/COX-2 IC50)” value was above 102.0. Besides, in [5], the IC50 turned out to be 14.9 ± 1.38 µM. Further, in [6], the inhibition at 10 µM was found to be 0%. In addition, the IC50 in data set [7] came to 29.1 ± 2.45 µM. The inhibition at 10 µM in [8] stood at 3%. Further, the inhibition at 10 µM in data set [9] came out at 3%. The inhibition at 10 µM in data set [10] was found to be 1%.
Molecule `COc1ccc2c(c1)c(CC(=O)Sc1ccccc1)c(C)n2C(=O)c1ccc(Cl)cc1` [7a, S-phenyl-2–(1-(4-chlorobenzoyl)-5-methoxy-2-methyl-1H-indol-3-yl)ethanethioate] displayed a melting point of 133 to 135 °C. In [1], this molecule displayed an IC50 above 50 µM. The IC50 in data set [2] is 9.65 ± 0.96 µM. Further, the IC50 in [3] is 14.6 ± 1.24 µM. In data set [4], the IC50 came to 0.22 ± 0.019 µM and the “SI, selectivity index (COX-1 IC50/COX-2 IC50)” value is given as above 227.3. Moreover, the IC50 in data set [5] is 7.86 ± 0.39 µM. Besides, the inhibition at 10 µM in data set [6] came out at 0%. The IC50 in [7] worked out at 18.1 ± 1.73 µM. Further, in [8], the inhibition at 10 µM was found to be 4%. Moreover, the inhibition at 10 µM in data set [9] was 1%. In addition, in data set [10], the inhibition at 10 µM was 0%.
